Experimental data published in patent US20210405025A1, “IDENTIFYING COMPOUNDS FOR TREATING CANCER AND USE THEREOF” (THE UAB RESEARCH FOUNDATION, priority 2018, published 2021).
Structures can show the parent of a compound that is named as a salt.

System: relapsed AML cells
Experiment: Drug sensitivity assay, 1,536-well, 3-day culture with individual approved drugs at 10 μM, viability by alamarBlue
Assay type: cell-based, human
Conditions: not given
Experimental: Drug sensitivity assays were performed using a 1,536-well platform where all cells and reagents were deposited in wells using an acoustic liquid handling unit that is highly accurate for dispensing of nanoliter volumes of liquid. […] After dispensing the cells into the wells, an independent drug at a known concentration is added to each well and incubated with the cells. After three days, the percentage of live cells in each well is determined to assess the killing efficiency of each compound. […] Cell viability assays are known to those of skill in the art. See, for example, Pemovska et al., Individualized systems medicine strategy to tailor treatments for patients with chemorefractory acute myeloid leukemia. Cancer Discovery 3:1416-1429, 2013; Pabst et al., Identification of small molecules that support human leukemia stem cell activity ex vivo. Nature Methods 11:436-442, 2014; Baccelli et al., A novel approach for the identification of efficient combination therapies in primary human acute myeloid leukemia specimens. Blood Cancer Journal 7:e529, 2017. In studies described herein, the 1,536-well format was utilized, which allowed for use of four times fewer cells as well as less drug and media components due to the small assay volume of 5 microliters. […] Other compounds like CellTiter-Glo (Promega, Madison, Wis.) are equally appropriate reagents for determining cell viability.
Conditions for the drug screening assays were as described in Pabst et al., Identification of small molecules that support human leukemia stem cell activity ex vivo, Nature Methods 11:436-442, 2014). Using this protocol, cells were cultured in Iscove's Modified Dulbecco's Medium (IMDM), 15% BIT (bovine serum albumin, insulin, transferrin; Stem Cell Technologies 09500 (Vancouver, Calif.)), 100 ng/ml SCF (Shenandoah 100-04 (Warwick, Pa.)), 50 ng/ml FLT3L (Shenandoah 100-21), 20 ng/ml IL-3 (Shenandoah 100-80), 20 ng/ml G-CSF (Shenandoah 100-72), 10^-4 M β-mercaptoethanol, gentamicin (50 μg/ml) and ciprofloxacin (10 μg/ml).
Cells were removed from liquid nitrogen and placed in a 37° C. bath, just until thawed. For 1,536-well screens utilizing 6,000 wells about 100 million cells were thawed. The volume was doubled with pre-warmed culture media and placed on ice for about one to two minutes. The cells were brought to a final volume of about 8 to 10 mL before spinning down at 1,100 rpm for 5 min at 10° C. The pelleted cells were resuspended in 10 mL of culture media and plated in a tissue-culture treated T75 flask at a density of 1 to 2 million cells/ml. The cells were cultured overnight prior to fluorescence-activated cell sorting of viable cells on the following day.
After cells were cultured overnight, a cell scraper was used to remove any cells that adhered to the plastic. The cells were gently pipetted up and down to break up aggregates. Then, the entire volume was transferred to a 50 mL conical tube through a 70 micron cell strainer to remove cell clumps. The T75 flask was rinsed and scraped with about 10 mL HBSS and transferred to the same 50 mL conical tube through the strainer. The harvested cells were spun down at 1,100 rpm for 5 min at 10° C. The cells were then resuspendd in about 300-500 microliters FACS buffer (HBSS+2% FBS+1× propidium iodide) and transferred to a FACS tube. The tube was placed on ice and viable cells that are forward- and side-scatter gated on viable myeloid blasts were sorted by FACS (the scatter gate should exclude small lymphocytes, large myeloid cells, and debris). After sorting the required number of viable cells, the cells were spun down at 1,100 rpm for 5 min at 10° C. and subsequently resuspended at 4,000-4,500 cells per 5 microliter volume of complete culture media with growth factors and penicillin/streptomycin.

Compound | #Cases >70% cell death
O=C(O)C1[O][Sb]2[O]C(=O)C([O]2)C(C(=O)O)[O][Sb]2[O]C(=O)C1[O]2 (stereo not drawn) [ANTIMONY POTASSIUM TARTRATE TRIHYDRATE] | 3
ZINC PYRITHIONE | 9

Same assay, conditions: number of relapsed AML cases out of 18 tested with >70% cell death; 10 μM, 3-day culture

Compound | #Cases >70% cell death
CNC[C@H](O)[C@@H](O)[C@H](O)[C@H](O)CO [MEGLUMINE] | 1
Cc1ccc(C(=O)c2cc(O)c(O)c([N+](=O)[O-])c2)cc1 [TOLCAPONE] | 1
CC(C)/N=c1\cc2n(-c3ccc(Cl)cc3)c3ccccc3nc-2cc1Nc1ccc(Cl)cc1 [CLOFAZIMINE] | 6
CC(=O)c1ccc2c(c1)N(CCCN(C)C)c1ccccc1S2 [ACEPROMAZINE MALEATE] | 2
Cc1cc(C(=O)NOCCO)c(Nc2ccc(I)cc2F)n(C)c1=O [AZD8330] | 2
C1CCC(C(CC2CCCCN2)C2CCCCC2)CC1 (stereo not drawn) [PERHEXILINE MALEATE] | 13
AMONAFIDE MALATE | 8
CC(C)(C)C(=O)C(Oc1ccc(Cl)cc1)n1ccnc1 (stereo not drawn) [CLIMBAZOLE] | 1
O=C(NCC1CCCCN1)c1cc(OCC(F)(F)F)ccc1OCC(F)(F)F (stereo not drawn) | 1
CC(NCCC(c1ccccc1)c1ccccc1)c1ccccc1 (stereo not drawn) [FENDILINE HYDROCHLORIDE] | 1
COc1ccc(C[C@H](N)C(=O)N[C@H]2[C@@H](O)[C@H](n3cnc4c(N(C)C)ncnc43)O[C@@H]2CO)cc1 [PUROMYCIN] | 18
CC(C)(C)CC(C)(C)c1cc(Cc2cc(C(C)(C)CC(C)(C)C)cc(-n3nc4ccccc4n3)c2O)c(O)c(-n2nc3ccccc3n2)c1 [BISOCTRIZOLE] | 1
CN(C)C[C@@H]1CCn2cc(c3ccccc32)C2=C(C(=O)NC2=O)c2cn(c3ccccc23)CCO1 [LY333531] | 12
COc1cccc(-c2cc(F)ccc2[C@H]2Cc3nc(N)nc(C)c3C(=O)N2)n1 [HSP-990] | 17
CC(C)Oc1ccc(C(=O)N[C@H](CNC(=O)CN(C)C)Cc2ccc(-c3cn4cccc([C@H](C)O)c4n3)cc2)cc1Cl [GSK923295] | 8
Cc1ccc(C(=O)Nc2ccc(CN3CCN(C)CC3)c(C(F)(F)F)c2)cc1C#Cc1cnc2cccnn12 [PONATINIB] | 18
C[n+]1c2cc(N)ccc2cc2ccc(N)cc21.[Cl-] [ACRIFLAVINIUM HYDROCHLORIDE] | 5
C=CC(=O)N1CCC[C@@H](n2nc(-c3ccc(Oc4ccccc4)cc3)c3c(N)ncnc32)C1 [IBRUTINIB] | 2
Cc1nccn1CC1CCc2c(c3ccccc3n2C)C1=O (stereo not drawn) [ONDANSETRON (Zofran), ONDANSETRON] | 1
CCOC(=O)C1=C(COCCN)NC(C)=C(C(=O)OC)C1c1ccccc1Cl (stereo not drawn) [AMLODIPINE] | 14
O=C1NCCc2[nH]c(-c3ccncc3)cc21 [PHA-767491] | 18
COc1c(C)cnc(Cn2cnc3c(Cl)nc(N)nc32)c1C [CNF-2024] | 18
C=C1C[C@H]2[C@@H]3C=C(C)C4=CC(=O)CC[C@]4(C)[C@H]3CC[C@]2(C)[C@@]1(OC(C)=O)C(C)=O [MELENGESTROL ACETATE] | 2
C[C@]12C=CC(=O)C=C1CC[C@@H]1[C@@H]2[C@@H](O)C[C@@]2(C)[C@H]1CC[C@]2(O)C(=O)CO [PREDNISOLONE] | 1
CCn1cc(-c2ccnc3[nH]c(-c4cccc(CN(C)C)c4)cc23)c(-c2ccc(NC(=O)N(C)C)cc2)n1 [GSK1070916] | 11
CCC(C)n1ncn(-c2ccc(N3CCN(c4ccc(OCC5COC(Cn6cncn6)(c6ccc(Cl)cc6Cl)O5)cc4)CC3)cc2)c1=O (stereo not drawn) [ITRACONAZOLE] | 6
Cc1ccc(C(=O)N(CCCN)[C@@H](c2oc3cc(Cl)ccc3c(=O)c2Cc2ccccc2)C(C)C)cc1 [SB743921] | 18
C[C@@H]1C[C@@H]([C@H](O)CC2CC(=O)NC(=O)C2)C(=O)[C@@H](C)C1 [CYCLOHEXIMIDE] | 18

Compound | #Cases >70% cell death
C[C@]12CC[C@H](O)C[C@H]1CC[C@@H]1[C@@H]2C[C@@H](O)[C@]2(C)[C@@H](C3=CC(=O)OC3)CC[C@]12O [DIGOXIGENIN] | 18
CN(C(=O)CN(CCO)CC(=O)N(C)C(C)(C)Cc1ccccc1)C(C)(C)Cc1ccccc1 [OXETHAZAINE] | 1
Nc1nc2nc[nH]c2c(=S)[nH]1 [THIOGUANINE] | 14
C[C@@H]1CCCN1CCc1cc2cc(-c3ccc(C#N)cc3)ccc2o1 [ABT-239] | 1
COc1ccc2cc3[n+](cc2c1OC)CCc1cc2c(cc1-3)OCO2 [BERBERINE CHLORIDE] | 1
VINFLUNINE TARTRATE | 14
COc1cc(Nc2c(C#N)cnc3cc(OCCCN4CCN(C)CC4)c(OC)cc23)c(Cl)cc1Cl [BOSUTINIB] | 12
C[C@H]1[C@H](OC(=O)CCC(=O)O)O[C@@H]2O[C@@]3(C)CC[C@H]4[C@H](C)CC[C@@H]1[C@@]24OO3 [ARTESUNATE] | 5
Clc1ccc(Cn2c(CN3CCCC3)nc3ccccc32)cc1 [CLEMIZOLE HYDROCHLORIDE] | 1
CC(C)OC(=O)CCC/C=C\C[C@@H]1[C@@H](CC[C@@H](O)CCc2ccccc2)[C@H](O)C[C@@H]1O [LATANOPROST] | 1
CCCCOc1cc(C(=O)OCCN(CC)CC)ccc1N [BENOXINATE] | 5
EPRINOMECTIN | 5
CO[C@H]1C[C@H](O[C@@H]2/C(C)=C/C[C@@H]3C[C@@H](C[C@]4(CC[C@H](C)[C@@H](C5CCCCC5)O4)O3)OC(=O)[C@@H]3C=C(C)/C(=N/O)[C@H]4OC/C(=C\C=C\[C@@H]2C)[C@]43O)O[C@@H](C)[C@@H]1O [SELAMECTIN] | 18
Clc1ccc2c(c1)CCc1cccnc1C2=C1CCNCC1 [DESLORATADINE] | 1
CC(C)(C)CC(C)(C)c1ccc(OCCOCC[N+](C)(C)Cc2ccccc2)cc1 [BENZETHONIUM CHLORIDE] | 16
CCNC1(C(N)=O)CCN(c2ncnc3c2nc(-c2ccccc2Cl)n3-c2ccc(Cl)cc2)CC1 [CP-945] | 1
Cc1cc(Nc2nc(N[C@@H](C)c3ncc(F)cn3)ncc2Cl)[nH]n1 [AZD-1480] | 12
C#CCC(Cc1cnc2nc(N)nc(N)c2n1)c1ccc(C(=O)N[C@@H](CCC(=O)O)C(=O)O)cc1 (stereo partly drawn) [PRALATREXATE(FOLOTYN, PRALATREXATE] | 5
Cc1[nH]c2ccccc2c1CCNCc1ccc(/C=C/C(=O)NO)cc1 [PANOBINOSTAT] | 1
FC(F)(F)c1ccc(/C=C/c2nc(COc3ccc(CCCCn4ccnn4)cc3)co2)cc1 [MUBRITINIB] | 1
NC[C@H]1O[C@H](O[C@H]2[C@H](O)[C@@H](O[C@H]3O[C@H](CO)[C@@H](O)[C@H](N)[C@H]3O)[C@H](N)C[C@@H]2N)[C@H](N)C[C@@H]1O [TOBRAMYCIN] | 1
CC(C)CC(=O)Nc1n[nH]c2c1CN(C(=O)C1CCN(C)CC1)C2(C)C [PHA-793887] | 16
C#C[C@]1(O)CC[C@H]2[C@@H]3CCc4cc(OC5CCCC5)ccc4[C@H]3CC[C@@]21C [QUINESTROL] | 15
CC1(C)O[C@@H]2C[C@H]3[C@@H]4C[C@H](F)C5=CC(=O)CC[C@]5(C)[C@H]4[C@@H](O)C[C@]3(C)[C@]2(C(=O)CO)O1 [FLURANDRENOLIDE] | 18
N#Cc1ccc2[nH]cc(CCCCN3CCN(c4ccc5oc(C(N)=O)cc5c4)CC3)c2c1 [VILAZODONE] | 2
Nc1ccn([C@@H]2O[C@H](CO)[C@@H](O)C2(F)F)c(=O)n1 [GEMCITABINE] | 16
CN(c1ncccc1CNc1nc(Nc2ccc3c(c2)CC(=O)N3)ncc1C(F)(F)F)S(C)(=O)=O [PF-562271] | 18
